Measurements published in patent publication US12661410B2, “Compounds for targeted degradation of RET” (C4 Therapeutics, Inc., priority 2020, dated 2026).
Numbering of substitutions follows the chain as printed. Read-outs that look alike come from different tables or passages of the source.

Key:
RET(KD: 658-1114 G810R) = molecular target: T1, RET(KD: 658-1114 G810R) (Homo sapiens, UniProt P07949, G810R); assay: HiBiT-Degradation, RET G810R degradation assay (Nano-Glo HiBiT Lytic), 293T.165 cells; assay type: cell-based; conditions: for Emax / DC50: 6.0 hours
T1 construct: 658-1114; expressed in transfected cells; host or cells: 293T.165 (293T cells, generated in-house)
T1 sequence (P07949 658-1114 G810R): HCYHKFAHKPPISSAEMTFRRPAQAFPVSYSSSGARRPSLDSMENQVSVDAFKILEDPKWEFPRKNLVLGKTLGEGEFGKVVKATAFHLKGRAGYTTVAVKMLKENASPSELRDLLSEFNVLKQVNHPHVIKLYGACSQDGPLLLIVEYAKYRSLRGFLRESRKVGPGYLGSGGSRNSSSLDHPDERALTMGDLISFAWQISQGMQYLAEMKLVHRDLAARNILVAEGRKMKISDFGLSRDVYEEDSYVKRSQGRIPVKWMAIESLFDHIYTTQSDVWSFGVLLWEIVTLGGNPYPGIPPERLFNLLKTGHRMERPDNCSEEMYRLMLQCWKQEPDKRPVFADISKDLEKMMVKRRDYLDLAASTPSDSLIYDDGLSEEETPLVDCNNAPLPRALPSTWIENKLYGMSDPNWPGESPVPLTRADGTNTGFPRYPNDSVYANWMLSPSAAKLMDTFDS
Source text: (§1) Dulbecco's modified Eagle medium (DMEM) no-phenol red media and fetal bovine serum (FBS) were purchased from Gibco (Grand Island, NY, USA). Cell lines ectopically expressing wild-type or G810R RET kinase domain fused with a HiBiT tag were generated in-house (293T. 144 and 293T. 165, respectively). Cell culture flasks and 384-well microplates were acquired from VWR (Radnor, PA, USA). The Nano-Glo® HiBiT Lytic Assay System was purchased from Promega (Madison, WI, USA).
(§2) RET wild-type (WT) and G810R degradation were assessed using the Nano-Glo® HiBiT Lytic assay (Promega, Medison, WI, USA). To determine the effect of degraders on protein levels, cells were plated in 384-well plates and treated with compounds of interest in duplicates for 6 hours using an 11-point half-log dilution series, with the highest dose set at 10 μM. Cell lysis and addition of the Nano-Glo® HiBiT Lytic Assay reagents was then performed. Luminescence signal was measured using an EnVision™ Multimode plate reader (Perkin Elmer, Santa Clara, CA, USA). The half-maximal degradation concentration (DC50) and % remaining protein (Emax) was then derived from the dose-response curves.

RET (658-1114) = molecular target: T2, RET (658-1114) (Homo sapiens, UniProt P07949); assay: HiBiT-Degradation, RET wild-type degradation assay (Nano-Glo HiBiT Lytic), 293T.144 cells; assay type: cell-based; conditions: for DC50 / Emax: 6.0 hours
T2 construct: 658-1114; expressed in transfected cells; host or cells: 293T.144 (293T cells, generated in-house)
T2 sequence (P07949 658-1114): T1 sequence (P07949 658-1114 G810R) with R153G
Source text: as §1, §2

[1] = % remaining protein, read-out: 293T.165 RET(KD: 658-1114 G810R) 6.0 hours (Emax)
[2] = half-maximal degradation concentration, read-out: 293T.165 RET(KD: 658-1114 G810R) 6.0 hours (DC50)
[3] = % remaining protein, read-out: 293T.144 RET (658-1114) 6.0 hours (Emax)
[4] = half-maximal degradation concentration, read-out: 293T.144 RET (658-1114) 6.0 hours (DC50)

Emax (RET(KD: 658-1114 G810R); [1]) | DC50 (RET(KD: 658-1114 G810R); [2]) | HiBiT-Degradation 293T.165 RET(KD: 658-1114 G810R) 6.0 hours (IP) [nM] (RET(KD: 658-1114 G810R); RET G810R) | DC50 (RET(KD: 658-1114 G810R); RET G810R, read-out: HiBiT-Degradation 293T.165 RET(KD: 658-1114 G810R) 6.0 hours (DC50)) | Emax (RET(KD: 658-1114 G810R); RET G810R, read-out: HiBiT-Degradation 293T.165 RET(KD: 658-1114 G810R) 6.0 hours (Emax)) | HiBiT-Degradation 293T.144 RET (658-1114) 6.0 hours (IP) [nM] (RET (658-1114); RET wild-type) | DC50 (RET (658-1114); RET wild-type, read-out: HiBiT-Degradation 293T.144 RET (658-1114) 6.0 hours (DC50)) | Emax (RET (658-1114); RET wild-type, read-out: HiBiT-Degradation 293T.144 RET (658-1114) 6.0 hours (Emax)) | 293T.165 RET(KD: 658-1114 G810R) 6.0 hours (IP) [nM] (RET(KD: 658-1114 G810R)) | 293T.144 RET (658-1114) 6.0 hours (IP) [nM] (RET (658-1114)) | Emax (RET (658-1114); [3]) | DC50 (RET (658-1114); [4]) | Compound
< 30% | < 100 nM |  |  |  |  |  |  | ++++ (<50 nM = ++++) | ++++ (<50 nM = ++++) | < 30% | < 50 nM | COc1cc(N2CCN([C@H]3CC[C@H](n4cc(-c5cn6ncc(C#N)c6c(-c6ccc(N7C[C@@H]8C[C@@](C)(NC(=O)c9ncccc9Cl)C[C@@H]8C7)nc6)n5)cn4)CC3)CC2)c(F)cc1NC1CCC(=O)NC1=O (stereo partly drawn) [Compound 209, N-[(3aR,6aS)-2-[5-[3-cyano-6-[1-[4-[4-[4-[(2,6-dioxo-3-piperidyl)amino]-2-fluoro-5-methoxy-phenyl]piperazin-1-yl]cyclohexyl]pyrazol-4-yl]pyrazolo[1,5-a]pyrazin-4-yl]-2-pyridyl]-5-methyl-1,3,3a, 4,6,6a-hexahydrocyclopenta[c]pyrrol-5-yl]-3-chloro-pyridine-2-carboxamide]
< 30% | < 100 nM |  |  |  |  |  |  | ++++ (<50 nM = ++++) | ++++ (<50 nM = ++++) | < 30% | < 50 nM | CCC1(C(=O)NC2CCC2)CCN(c2ccc(-c3nc(-c4cnn([C@H]5CC[C@H](CN6CCN(c7ccc(N[C@@H]8CCC(=O)NC8=O)cc7F)CC6)CC5)c4)cn4ncc(C#N)c34)cn2)CC1 [Compound 190, 1-[5-[3-cyano-6-[1-[4-[[4-[4-[[(3R)-2,6-dioxo-3-piperidyl]amino]-2-fluoro-phenyl]piperazin-1-yl]methyl]cyclohexyl]pyrazol-4-yl]pyrazolo[1,5-a]pyrazin-4-yl]-2-pyridyl]-N-cyclobutyl-4-ethyl-piperidine-4-carboxamide]
< 30% | < 100 nM |  |  |  |  |  |  | ++++ (<50 nM = ++++) | ++++ (<50 nM = ++++) | < 30% | < 50 nM | COc1cc(N2CCN([C@H]3CC[C@H](n4cc(-c5cn6ncc(C#N)c6c(-c6ccc(N7C[C@@H]8[C@@H](CNC(=O)c9ncccc9Cl)[C@@H]8C7)nc6)n5)cn4)CC3)CC2)c(F)cc1NC1CCC(=O)NC1=O (stereo partly drawn) [Compound 168, 3-chloro-N-[[(1S,5R)-3-[5-[3-cyano-6-[1-[4-[4-[4-[(2,6-dioxo-3-piperidyl)amino]-2-fluoro-5-methoxy-phenyl]piperazin-1-yl]cyclohexyl]pyrazol-4-yl]pyrazolo[1,5-a]pyrazin-4-yl]-2-pyridyl]-3-azabicyclo[3.1.0]hexan-6-yl]methyl]pyridine-2-carboxamide]

Second part, the compound before the results:

Compound | Emax (RET(KD: 658-1114 G810R); [1]) | DC50 (RET(KD: 658-1114 G810R); [2]) | HiBiT-Degradation 293T.165 RET(KD: 658-1114 G810R) 6.0 hours (IP) [nM] (RET(KD: 658-1114 G810R); RET G810R) | DC50 (RET(KD: 658-1114 G810R); RET G810R, read-out: HiBiT-Degradation 293T.165 RET(KD: 658-1114 G810R) 6.0 hours (DC50)) | Emax (RET(KD: 658-1114 G810R); RET G810R, read-out: HiBiT-Degradation 293T.165 RET(KD: 658-1114 G810R) 6.0 hours (Emax)) | HiBiT-Degradation 293T.144 RET (658-1114) 6.0 hours (IP) [nM] (RET (658-1114); RET wild-type) | DC50 (RET (658-1114); RET wild-type, read-out: HiBiT-Degradation 293T.144 RET (658-1114) 6.0 hours (DC50)) | Emax (RET (658-1114); RET wild-type, read-out: HiBiT-Degradation 293T.144 RET (658-1114) 6.0 hours (Emax)) | 293T.165 RET(KD: 658-1114 G810R) 6.0 hours (IP) [nM] (RET(KD: 658-1114 G810R)) | 293T.144 RET (658-1114) 6.0 hours (IP) [nM] (RET (658-1114)) | Emax (RET (658-1114); [3]) | DC50 (RET (658-1114); [4])
CN(Cc1ccc(-c2cn3ncc(C#N)c3c(-c3ccc(N4CCN(Cc5ccccn5)CC4)nc3)n2)cc1)C(=O)CN1CCC(c2ccc(NC3CCC(=O)NC3=O)cc2)CC1 (centres unmarked) [Compound 83, N-[[4-[3-cyano-4-[6-[4-(2-pyridylmethyl)piperazin-1-yl]-3-pyridyl]pyrazolo[1,5-a]pyrazin-6-yl]phenyl]methyl]-2-[4-[4-[(2,6-dioxo-3-piperidyl)amino]phenyl]-1-piperidyl]-N-methyl-acetamide] | < 50% | < 100 nM | ++++ (< 50 nM = ++++) | < 100 nM | < 50% | ++++ (< 50 nM = ++++) | < 50 nM | < 30% |  |  |  | 
N#Cc1cnn2cc(-c3cnn(C4CCN(C(=O)CC5(O)CCN(c6ccc(NC7CCC(=O)NC7=O)cc6F)CC5)CC4)c3)nc(-c3ccc(N4CCCN(Cc5ccccc5)CC4)nc3)c12 (centres unmarked) [Compound 108, 4-[6-(4-benzyl-1,4-diazepan-1-yl)-3-pyridyl]-6-[1-[1-[2-[1-[4-[(2,6-dioxo-3-piperidyl)amino]-2-fluoro-phenyl]-4-hydroxy-4-piperidyl]acetyl]-4-piperidyl]pyrazol-4-yl]pyrazolo[1,5-a]pyrazine-3-carbonitrile] | < 30% | < 50 nM |  |  |  |  |  |  | ++++ (<50 nM = ++++) | ++++ (<50 nM = ++++) | < 30% | < 50 nM
CCC1(C(=O)NC2CCOCC2)CCN(c2ccc(-c3nc(-c4cnn([C@H]5CC[C@H](N6CCC(c7ccc(N[C@H]8CCC(=O)NC8=O)cc7F)CC6)CC5)c4)cn4ncc(C#N)c34)cn2)CC1 (stereo in doubt) [Compound 144, 1-(5-(3-cyano-6-(1-((1S,4r)-4-(4-(4-(((S)-2,6-dioxopiperidin-3-yl)amino)-2-fluorophenyl)piperidin-1-yl)cyclohexyl)-1H-pyrazol-4-yl)pyrazolo[1,5-a]pyrazin-4-yl)pyridin-2-yl)-4-ethyl-N-(tetrahydro-2H-pyran-4-yl)piperidine-4-carboxamide] | < 30% | < 50 nM |  |  |  |  |  |  | ++++ (<50 nM = ++++) | ++++ (<50 nM = ++++) | < 30% | < 50 nM
COc1ccc(CC2(OC)CCN(c3ccc(-c4nc(-c5cnn([C@H]6CC[C@@H](N7CCN(c8ccc(NC9CCC(=O)NC9=O)cc8F)CC7)CC6)c5)cn5ncc(C#N)c45)cn3)CC2)cn1 (single isomer, unassigned) [Compound 147, 6-(1-((1s, 4s)-4-(4-(4-((2,6-Dioxopiperidin-3-yl)amino)-2-fluorophenyl)piperazin-1-yl)cyclohexyl)-1H-pyrazol-4-yl)-4-(6-(4-methoxy-4-((6-methoxypyridin-3-yl)methyl)piperidin-1-yl)pyridin-3-yl)pyrazolo[1,5-a]pyrazine-3-carbonitrile] | < 30% | < 100 nM |  |  |  |  |  |  | ++++ (<50 nM = ++++) | ++++ (<50 nM = ++++) | < 30% | < 50 nM
Cn1nc(N2CCC(=O)NC2=O)c2ccc(N3CCN([C@H]4CC[C@H](n5cc(-c6cn7ncc(C#N)c7c(-c7ccc(N8C[C@H]9COC[C@@H](C8)N9Cc8ccccn8)nc7)n6)cn5)CC4)CC3)c(F)c21 [Compound 208, 6-[1-[4-[4-[3-(2,4-dioxohexahydropyrimidin-1-yl)-7-fluoro-1-methyl-indazol-6-yl]piperazin-1-yl]cyclohexyl]pyrazol-4-yl]-4-[6-[(1S,5R)-9-(2-pyridylmethyl)-3-oxa-7,9-diazabicyclo[3.3.1]nonan-7-yl]-3-pyridyl]pyrazolo[1,5-a]pyrazine-3-carbonitrile] | < 30% | < 100 nM |  |  |  |  |  |  | ++++ (<50 nM = ++++) | ++++ (<50 nM = ++++) | < 30% | < 50 nM
